From patent publication US20120302609A1, “Pyrazolines for the Modulation of PKM2” (Dynamix Pharmaceuticals LTD., priority 2011, published 2012)

Key:
PKM2, human recombinant = target: T1, PKM2, human recombinant (Homo sapiens, UniProt P14618); experiment: PKM2 enzymatic activity assay (Kinase-Glo Plus luminescence); format: biochemical; conditions: for AC50: 0.1 nM PKM2, 0.1 mM ADP, 0.5 mM PEP, 1 hour, room temperature, read-out: AC50 group; for Max activity Group / Emax: maximum percent activity, luminescence without compound = 0% activity; for Emax: 1 h, read-out: Max activity Group;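 as to Max activity Group: percent increase over no-compound signal after subtracting the no-PKM2 background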
T1 construct: purchased BPS 50295
Experimental: PKM2 performs the following enzymatic reaction, where the PKM2 substrates, PEP (phosphoenolpyruvate) and ADP, are converted to pyruvate and ATP as follows:
All of the enzymatic reactions were conducted in duplicates at room temperature for 1 hour in a 50 μL mixture containing: • PKM2 assay buffer (50 mM Imidazole, pH 7.2; 7 mM MgCl2; 50 mM KCl; 0.01% Tween; • and 0.05% BSA), 0.1 mM ADP, 0.5 mM PEP, 0.1 nM PKM2 enzyme (PKM2, human recombinant (BPS catalog number 50295)) and the indicated test compound. Fructose 1,6 biphosphat e, (FBP (Sigma)) was used as a positive control for activation at concentration of 0.5 mM. After enzymatic reactions, 50 μL of Kinase-Glo® Plus reagent (Promega kit) was added to each well and luminescence was measured using a BioTek Synergy™ 2 microplate reader.
PKM2 activity assays were performed in duplicates at each concentration. The luminescence data were analyzed using the computer software, GraphPad PRISM®. In the absence of the compound, the luminescence was defined as 0% activity. The percent activity in the presence of each compound was calculated according to the following equation:
% Activity=[(L−Lb)/(Lt−Lb)−1]×100%
where L=the luminescence in the presence of the test compound, Lb=the luminescence in the absence of PKM2, and Lt=the luminescence intensity in the absence of the test compound. The % activity values versus a series of compound concentrations were plotted using non-linear regression analysis of Sigmoidal dose-response curve generated with the equation Y=B+(T−B)/1+10^((LogEC50-X)×Hill Slope), where Y=percent activity, B=minimum percent activity, T=maximum percent activity, X=logarithm of compound and Hill Slope=slope factor or Hill coefficient. The AC50 values, shown in Table 2 were determined for the indicated test compounds as the concentration causing a half-maximal percent activity.

H1299 (lung) = experiment: Cell proliferation assay (CellTiter-Glo Luminescent); format: cell-based, human; conditions: 96 hr
Experimental: 1. Cells were grown according to the ATCC conditions. 2. Cell feeding (passaging) was timed such that the cells were in exponential growth phase at the time of the assay.
3. On day 1, H1299 cells were counted. Cell numbers were adjusted to the desired cell concentration in Media 1: RPMI 1640 Invitrogen 11879020 (that contained no glucose or pyruvate) with 10% FBS, and 1 mM D-Glucose (4 μl of 2.5 M D-glucose G8769 was added in preparing 10 ml RPMI media with 1 mM glucose). A 200 μl of H1299 cell suspension was added to appropriate wells in the 96-well plates, and incubated at 37° C. in the CO2 cell incubator under normal growing conditions for overnight. 4. On day 2, a 100 mM stock concentration of test compounds in 100% DMSO was prepared and serially diluted with 100% DMSO to 33.33 mM, 11.11 mM, and 3.7 mM. A 1:1000 dilution was made to each concentration in media 1 (yielding 0.1% final DMSO concentration). The media was aspirated completely from the cell plate. Each 100 μl of the following solutions (100 μM, 33.33 μM, 11.11 μM, and 3.7 μM) was added to the cells. DMSO in a final concentration of 0.1%, and media without DMSO, were added to the cells and used as a negative control. Empty wells around the experimental wells were filled with PBS. The plate was sealed with parafilm to reduce evaporation. 5. The plate was incubated under normal conditions (5% CO2, and 95% air), for 96 hours at 37° C. 6. On day 6 (after 96 hr incubation), the plate was equilibrated to room temperature for approximately 30 minutes. A 100 μl of CellTiter-Glo Reagent was added in each well of the plate. Contents were mixed for 2 minutes on an orbital shaker to induce cell lysis. The plate was incubated at room temperature for 10 minutes to stabilize luminescent signal. Luminescence was recorded with Flexstation 3.
Unless noted otherwise, proliferation of control or compound treated H1299 cells was measured using CellTiter-Glo Luminescent assay following 96 hr incubation of the cells with and without test compounds. The AC50 values, shown in Table 3, were coded according to follows: A: <3 μM; B: 3-10 μM; C: 10-20 μM; or D: >20 μM.

786-O (kidney) = experiment: as above; format: cell-based; conditions: Homo sapiens, 786-0, 1 mM glucose, 96 hr
[1] = Homo sapiens, NCI-H1299, 1 mM glucose

T1 sequence (P14618 whole entry): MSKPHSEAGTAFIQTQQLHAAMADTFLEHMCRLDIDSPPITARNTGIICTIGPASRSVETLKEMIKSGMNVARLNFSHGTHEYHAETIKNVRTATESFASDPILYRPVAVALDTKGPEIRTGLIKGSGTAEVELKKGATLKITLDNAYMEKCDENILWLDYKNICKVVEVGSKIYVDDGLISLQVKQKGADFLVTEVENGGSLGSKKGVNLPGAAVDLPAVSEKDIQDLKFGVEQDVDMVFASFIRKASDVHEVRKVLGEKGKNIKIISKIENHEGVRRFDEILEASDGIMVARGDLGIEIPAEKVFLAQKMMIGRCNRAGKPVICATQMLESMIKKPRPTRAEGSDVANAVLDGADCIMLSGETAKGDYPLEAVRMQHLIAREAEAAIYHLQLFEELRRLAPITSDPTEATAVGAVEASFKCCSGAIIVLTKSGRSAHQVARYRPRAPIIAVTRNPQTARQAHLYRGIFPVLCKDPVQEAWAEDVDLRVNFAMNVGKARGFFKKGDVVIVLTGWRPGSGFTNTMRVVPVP

Compound: COc1ccc(C2CC(c3ccc(NS(=O)(=O)c4ccc(OC)cc4)cc3)=NN2C(C)=O)cc1 (single isomer, unassigned) [Compound 40A]
- AC50 (PKM2, human recombinant): ≤ 1 µM
- Max activity Group (PKM2, human recombinant): A (A: ≧200%)
- AC50 (H1299 (lung); 1 mM glucose): > 20 µM
- AC50 (H1299 (lung); Complete media): > 20 µM

Compound: COc1ccc(C2CC(c3ccc(NS(=O)(=O)c4ccc(Cl)cc4)cc3)=NN2C(C)=O)cc1 (racemic) [Compound 26A, N-(4-(1-Acetyl-5-(4-methoxyphenyl)-4,5-dihydro-1H-pyrazol-3-yl)phenyl)-4-chloro benzenesulfonamide]
- AC50 (PKM2, human recombinant): ≤ 1 µM
- Emax (PKM2, human recombinant): ≤ 130%
- AC50 (786-O (kidney)): 3 to 10 µM
- AC50 (H1299 (lung); [1]): > 20 µM

Compound: COc1ccc(C2CC(c3ccc(NS(=O)(=O)c4cccc(F)c4)cc3)=NN2C(C)=O)cc1 (stereo not shown) [Compound 33A, N-(4-(1-Acetyl-5-(4-methoxyphenyl)-4,5-dihydro-1H-pyrazol-3-yl)phenyl)-3-fluoro benzenesulfonamide]
- AC50 (PKM2, human recombinant): ≤ 1 µM
- Emax (PKM2, human recombinant): 130 to 200%
- AC50 (H1299 (lung); [1]): > 20 µM

Compound: CC(=O)N1N=C(c2ccc(NS(=O)(=O)c3ccc(F)cc3)cc2)CC1c1ccc(F)cc1 (single isomer, unassigned) [Compound 36A]
- AC50 (PKM2, human recombinant): ≤ 1 µM
- AC50 (786-O (kidney)): 3 to 10 µM
- AC50 (H1299 (lung); [1]): > 20 µM

Compound: COc1ccc(C2CC(c3ccc(NS(=O)(=O)c4ccc(Cl)cc4)cc3)=NN2C(C)=O)cc1 (single isomer, unassigned) [Compound 38A]
- AC50 (H1299 (lung); 1 mM glucose): > 20 µM

Compound: COc1ccc(C2CC(c3ccc(NS(=O)(=O)c4cccc(OC)c4)cc3)=NN2C(C)=O)cc1 (racemic) [Compound 18A, N-(4-(1-Acetyl-5-(4-methoxyphenyl)-4,5-dihydro-1H-pyrazol-3-yl)phenyl)-3-methoxy benzenesulfonamide]
- AC50 (PKM2, human recombinant): ≤ 1 µM
- Emax (PKM2, human recombinant): 130 to 200%
- AC50 (H1299 (lung); [1]): > 20 µM

Compound: COc1ccc(C2CC(c3ccc(NS(=O)(=O)c4cccc(C(F)(F)F)c4)cc3)=NN2C(C)=O)cc1 (stereo not shown) [Compound 34A, N-(4-(1-Acetyl-5-(4-methoxyphenyl)-4,5-dihydro-1H-pyrazol-3-yl)phenyl)-3-(trifluoromethyl)benzenesulfonamide]
- AC50 (786-O (kidney)): 3 to 10 µM
- AC50 (H1299 (lung); [1]): > 20 µM

Compound: COc1ccc(C2CC(c3ccc(NS(=O)(=O)c4ccc(Cl)cc4)cc3)=NN2C(C)=O)cc1 (single isomer, unassigned) [Compound 37A]
- AC50 (H1299 (lung); [1]): > 20 µM

Compound: COc1ccc(C2CC(c3ccc(NS(=O)(=O)c4ccc(C(F)(F)F)cc4)cc3)=NN2C(C)=O)cc1 (stereo not shown) [Compound 21A, N-(4-(1-Acetyl-5-(4-methoxyphenyl)-4,5-dihydro-1H-pyrazol-3-yl)phenyl)-4-(trifluoromethyl)benzenesulfonamide]
- AC50 (PKM2, human recombinant): ≤ 1 µM
- Emax (PKM2, human recombinant): 130 to 200%
- AC50 (786-O (kidney)): 3 to 10 µM
- AC50 (H1299 (lung); [1]): 10 to 20 µM

Compound: CC(=O)N1N=C(c2ccc(NS(=O)(=O)c3ccc(F)cc3)cc2)C[C@@H]1c1ccc(C)cc1 [Compound 41A, (R)—N-(4-(1-Acetyl-5-(p-tolyl)-4,5-dihydro-1H-pyrazol-3-yl)phenyl)-4-fluorobenzene sulfonamide]
- AC50 (786-O (kidney)): 3 to 10 µM
- AC50 (H1299 (lung); [1]): 10 to 20 µM

Compound: COc1ccc(S(=O)(=O)Nc2ccc(C3=NN(C(C)=O)C(c4ccc(F)cc4)C3)cc2)cc1 (stereo not shown) [Compound 45A]
- AC50 (PKM2, human recombinant): ≤ 1 µM
- Emax (PKM2, human recombinant): ≤ 130%
- AC50 (786-O (kidney)): 3 to 10 µM
- AC50 (H1299 (lung); [1]): > 20 µM

Compound: COc1ccc(C2CC(c3ccc(NS(=O)(=O)c4ccc(OC)cc4)cc3)=NN2C(C)=O)cc1 (single isomer, unassigned) [Compound 39A]
- AC50 (PKM2, human recombinant): ≤ 1 µM
- Max activity Group (PKM2, human recombinant): C (C: ≦130%)
- AC50 (H1299 (lung); [1]): > 20 µM

Compound: COc1ccc(C2CC(c3ccc(NS(=O)(=O)c4ccc(F)cc4)cc3)=NN2C(C)=O)cc1Cl (stereo not shown) [Compound 32A, N-(4-(1-Acetyl-5-(3-chloro-4-methoxyphenyl)-4,5-dihydro-1H-pyrazol-3-yl)phenyl)-4-fluorobenzenesulfonamide]
- AC50 (786-O (kidney)): 3 to 10 µM
- AC50 (H1299 (lung); [1]): > 20 µM

Compound: COc1cccc([C@H]2CC(c3ccc(NS(=O)(=O)c4ccc(F)cc4)cc3)=NN2C(C)=O)c1 [Compound 42A, (R)—N-(4-(1-Acetyl-5-(3-methoxyphenyl)-4,5-dihydro-1H-pyrazol-3-yl)phenyl)-4-fluoro benzenesulfonamide]
- AC50 (786-O (kidney)): 10 to 20 µM

Compound: COc1ccc(C2CC(c3ccc(NS(=O)(=O)c4cccc(OC)c4)cc3)=NN2C(C)=O)cc1 (single isomer, unassigned) [Compound 29A]
- AC50 (H1299 (lung); [1]): > 20 µM

Compound: COc1ccccc1C1CC(c2ccc(NS(=O)(=O)c3ccc(F)cc3)cc2)=NN1C(C)=O (stereo not shown) [Compound 47A, N-(4-(1-Acetyl-5-(2-methoxyphenyl)-4,5-dihydro-1H-pyrazol-3-yl)phenyl)-4-fluoro benzenesulfonamide]
- AC50 (786-O (kidney)): 3 to 10 µM
- AC50 (H1299 (lung); [1]): > 20 µM
